Among the data in PubChem BioAssay (NCI) are TGI values, retold here.

Holding throughout (experiment): DTP human tumour cell line panel, 48 h
Assay [1] has as its system DLD-1 colon.
The test system of assay [2] is DMS 114 small cell lung.
The subject of assay [3] is DMS 273 small cell lung.
Assay [4] deals with HOP-18 NSCLC.
Assay [5] deals with KM20L2 colon.
Assay [6] deals with LXFL 529 NSCLC.
In assay [7] the test system is XF 498 CNS.
The subject of assay [8] is SNB-78 CNS.
Assay [9] has as its system RXF-631 renal.

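Exposure lasted 48 hours, with cells grown in 96-well plates and compounds tested at five concentrations. At the TGI there is no net growth.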 *1 amine or outer side, *2 acyl side, *3 side chain or, on linkers, in order; H or OH if unused. Where a SMILES comes first, the peptide text is derived from it. [ ]: non-standard residue; d: D form. ξ: configuration not given here. X22 = O=C(C(CC(O)CO)O[*:1])[*:2]; Ile(3ξ) = CCC(C)[C@H](N)C(=O)O; NMeV = CN[C@H](C(=O)O)C(C)C; NMeA = CN[C@@H](C)C(=O)O; βAla = NCCC(=O)O

In general, TGI refers to the concentration at which net growth stops. Low values mean more potent growth arrest, high ones less potent growth arrest. As to `CCOC(=O)C1=C(c2ccccc2)N(C(C)=O)Cc2ccccc21`, the total growth inhibition concentration (TGI) is more than 100 µM in assay [1]; 25.9 µM in assay [2]; 29.8 µM in assay [3]; 99.4 µM in [4]; 53.7 µM in assay [5]; more than 100 µM in [6]. The molecule further returned a concentration for total growth inhibition (TGI) in assay [7] of 25 µM.

On to `C[N+]1(C)C[C@@H](O)C[C@@H]1C(=O)[O-]`, for which the concentration for total growth inhibition (TGI) in [1], in assay [2], in assay [3], in assay [4], in [5] and in [6] was more than 100 µM each time. The TGI in assay [8] and in assay [7] was more than 100 µM each time.

In the case of `CCOC(=O)c1c2ccc(/C=C/c3ccccc3)ccc-2c(C(=O)OCC)c1N`, the concentration for total growth inhibition (TGI) in assay [1], in assay [2], in assay [3], in [4], in [5] and in assay [6] was more than 100 µM throughout. Besides, the total growth inhibition concentration (TGI) in [9] was more than 100 µM.

In the case of `N#Cc1cn(-c2c3ccccc3nc3ccccc23)c(=O)[nH]c1=O`, the TGI in assay [1] is more than 100 µM; in assay [2] it was 35.4 µM; in [5] it was 32.2 µM; in assay [8], 49.8 µM; in assay [7] it was 25.2 µM.

Turning to `Cc1ccc2nc3c(C)cc(=O)cc-3sc2c1`, the concentration for total growth inhibition (TGI) in assay [1] is more than 100 µM; in assay [2], 45.5 µM; in [3] it was more than 100 µM; in assay [4], more than 100 µM; in [5] it was more than 100 µM; in assay [6], more than 100 µM. In addition, the total growth inhibition concentration (TGI) in [9] and in [8] was more than 100 µM in each case.

As for `COC(=O)C(Cc1nc2ccccc2[nH]c1=O)C(=O)C(=O)Nc1ccc(F)cc1` (stereo not given), the TGI in [1] is more than 100 µM; in assay [2] it was 80.7 µM; in [3], more than 100 µM; in [4], more than 100 µM; in [5] it was more than 100 µM; in assay [6], 30 µM. Further, the concentration for total growth inhibition (TGI) in assay [9] and in assay [7] was more than 100 µM in each case.

`CCC(C)[C@@H]1NC(=O)[C@@H]2CCCN2C(=O)C(CC(O)CO)OC(=O)CCNC(=O)[C@H](C)N(C)C(=O)[C@H](C(C)C)N(C)C1=O` (stereo not given in full) (cyclo([Ile(3ξ)][NMeV][NMeA][βAla][X22]P)): the TGI in [1], in assay [3], in assay [5], in [6], in [9] and in assay [8] was more than 100 µM each time. Moreover, the TGI in assay [7] was more than 100 µM.

Regarding `COC(=O)C1(O)c2ccccc2N=C2C1CCN2C` (stereo not given), the TGI in assay [1], in assay [2], in [4], in [5], in assay [6] and in assay [8] was more than 100 µM throughout. For the same molecule, the TGI in assay [7] is more than 100 µM.

`O=C(O)COc1ccc(C(=O)/C(SS/C(C(=O)c2ccc(OCC(=O)O)c(Cl)c2Cl)=C2\C=C(c3ccccc3Cl)SS2)=C2/C=C(c3ccccc3Cl)SS2)c(Cl)c1Cl`: the concentration for total growth inhibition (TGI) is more than 65.4 µM in assay [1]; 26.1 µM in assay [2]; 56.9 µM in assay [3]; more than 72.4 µM in assay [4]; more than 100 µM in assay [5]; 19.9 µM in [6]. The total growth inhibition concentration (TGI) in assay [9] was more than 84.9 µM; in assay [8], 52.5 µM; in [7], 50.4 µM.

As for `COc1ccc(/C=C2\CCC(Cc3ccccc3)(CN(C)C)C2=O)cc1` (stereo not given), the concentration for total growth inhibition (TGI) was more than 100 µM in [1]; 48.6 µM in [2]; 32.5 µM in assay [3]; more than 100 µM in assay [4]; 59.6 µM in assay [5]; more than 100 µM in [6]. In [8], this molecule yielded a TGI of more than 100 µM.

For the molecule `Cc1nc2ccc(N)cc2[nH]c1=O`, the TGI in assay [1], in assay [3], in [5], in assay [6], in [9] and in [8] was more than 100 µM each time.

On to `C=C(C)CC(C)(c1cc2ccccc2n1C)N1CCOCC1` (stereo not given), for which the TGI in assay [1], in assay [3], in assay [4], in assay [5], in assay [6] and in [9] was more than 100 µM in each case. The molecule further returned a TGI in assay [7] of more than 100 µM.

Turning to `COC(=O)N/N=C(/c1nc2ccc([N+](=O)[O-])cc2[nH]c1=O)C(O)c1ccc(OC)c(OC)c1` (stereo not given), the concentration for total growth inhibition (TGI) is more than 100 µM in assay [1]; 51.3 µM in assay [2]; 63.7 µM in assay [3]; more than 100 µM in assay [4]; more than 100 µM in [5]; more than 100 µM in assay [6]. The TGI in assay [9], in assay [8] and in [7] was more than 100 µM each time.

Consider `Nc1nc2ncn(CC(O)COC(=O)c3ccccc3)c2c(=O)[nH]1` (stereo not given), for which the TGI in assay [1], in assay [2], in [3], in [4], in assay [5] and in assay [6] was more than 100 µM each time. In addition, the TGI in assay [9], in assay [8] and in assay [7] was more than 100 µM throughout.

As for `N#CC1CCCCC1NC1(C#N)CCCCC1` (stereo not given), the concentration for total growth inhibition (TGI) in assay [1], in [2], in [3], in assay [5], in [6] and in [8] was more than 100 µM each time. The same molecule gave a TGI in assay [7] of more than 100 µM.

As for `CC(=O)NC(CCCNC(=O)OCc1ccccc1)C(=O)O` (stereo not given), the TGI in assay [1], in assay [2], in assay [3], in assay [5], in assay [6] and in assay [9] was more than 100 µM in each case. Moreover, the total growth inhibition concentration (TGI) in assay [8] and in assay [7] was more than 100 µM each time.

`CCSc1nnc(-c2ccccc2)nc1Cc1ccc(OC)cc1`: the TGI in assay [1], in [3], in assay [4], in assay [5], in assay [6] and in [8] was more than 100 µM throughout. Further, the total growth inhibition concentration (TGI) in assay [7] was more than 100 µM.

`CSc1nc2nc(C(O)C(O)C(O)CO)cnc2c(=O)[nH]1` (stereo not given): the TGI in assay [1], in assay [2], in assay [3], in assay [5], in assay [6] and in assay [8] was more than 100 µM throughout. In [7], this molecule displayed a total growth inhibition concentration (TGI) of more than 100 µM.

On to `COC(=O)/C(=N/NC(C)(C)C)C(C(=O)OC)C(=O)C(=O)Nc1nc2ccc([N+](=O)[O-])cc2s1` (stereo not given), for which the TGI in assay [2], in [5], in [6], in [8] and in [7] was more than 100 µM in each case.

As for `COc1c(C)c(O)c2c(c1C)OC(c1ccccc1)CC2=O` (stereo not given), the TGI in assay [1], in [2], in [3], in [4], in assay [5] and in assay [6] was more than 100 µM each time. The TGI in [8] was more than 100 µM.
